The test system of this data set is Hepatotoxicity. Briefly: Literature-mined public compounds from Greene et al multi-species hepatotoxicity modelling dataset.

Where a name gives a salt, the structure may show the parent alone.

As to `CCCCC1=NC2(CCCC2)C(=O)N1Cc1ccc(-c2ccccc2-c2nnn[nH]2)cc1` [IRBESARTAN], the Hepatotoxicity result is recorded as “WE: Weak evidence (<10 case reports) of human hepatotoxicity”.

Consider GALLIUM NITRATE HYDRATE, for which the Hepatotoxicity entry was “NE: No evidence of hepatotoxicity in any species”.

`O=C1OCCN1/N=C/c1ccc([N+](=O)[O-])o1` [FURAZOLIDONE]: the Hepatotoxicity entry was “HH: Evidence of human hepatotoxicity”.

As to `Cc1cn([C@H]2C=C[C@@H](CO)O2)c(=O)[nH]c1=O` [STAVUDINE], the Hepatotoxicity entry is given as “HH: Evidence of human hepatotoxicity”.

For the compound `CN(C)C(=O)Oc1cc(OC(=O)N(C)C)cc(C(O)CNC(C)(C)C)c1` (centres undefined) [BAMBUTEROL], the Hepatotoxicity entry is “NE: No evidence of hepatotoxicity in any species”.

As for `Cc1cc(C(C)(C)C)c(O)c(C(C)(C)C)c1` [BUTYLATED HYDROXYTOLUENE], the Hepatotoxicity result is on record as “AH: Evidence for animal hepatotoxicity but not tested in humans”.

`ClC(Cl)=C(Cl)C(Cl)=C(Cl)Cl` [HEXACHLOROBUTADIENE]: the Hepatotoxicity result is listed as “AH: Evidence for animal hepatotoxicity but not tested in humans”.

As for `N=C(N)NCCC[C@H](N)C(=O)O` [ARGININE], the Hepatotoxicity result is “NE: No evidence of hepatotoxicity in any species”.

On to `CCC1(c2ccc(N)cc2)CCC(=O)NC1=O` (centres undefined) [AMINOGLUTETHIMIDE], for which the Hepatotoxicity result is on record as “NE: No evidence of hepatotoxicity in any species”.

Consider `C=C[C@H]1CN2CC[C@H]1C[C@H]2[C@H](O)c1ccnc2ccc(OC)cc12.C=C[C@H]1CN2CC[C@H]1C[C@H]2[C@H](O)c1ccnc2ccc(OC)cc12.O.O.O=S(=O)(O)O` [QUININE SULFATE], for which the Hepatotoxicity result was “HH: Evidence of human hepatotoxicity”.

For `COc1cc(CNC(=O)CCCC/C=C/C(C)C)ccc1O` [CAPSAICIN], the Hepatotoxicity entry is recorded as “NE: No evidence of hepatotoxicity in any species”.

For the compound `CC(=O)Nc1ccc(O)cc1` [ACETAMINOPHEN], the Hepatotoxicity entry is “HH: Evidence of human hepatotoxicity”.

Turning to `CCN1CCN(C(=O)N[C@@H](C(=O)N[C@@H]2C(=O)N3C(C(=O)O)=C(CSc4nnnn4C)CS[C@H]23)c2ccc(O)cc2)C(=O)C1=O.O.O` [CEFOPERAZONE DIHYDRATE], the Hepatotoxicity entry was “NE: No evidence of hepatotoxicity in any species”.

In the case of `CO[C@@]1(NC(=O)C2SC(=C(C(N)=O)C(=O)O)S2)C(=O)N2C(C(=O)O)=C(CSc3nnnn3C)CS[C@@H]21` (some centres undefined) [CEFOTETAN], the Hepatotoxicity result is given as “NE: No evidence of hepatotoxicity in any species”.

Consider `CC(=O)c1ccc(S(=O)(=O)NC(=O)NC2CCCCC2)cc1` [ACETOHEXAMIDE], for which the Hepatotoxicity result is given as “HH: Evidence of human hepatotoxicity”.

In the case of `CCc1nn(CCCN2CCN(c3cccc(Cl)c3)CC2)c(=O)n1CCOc1ccccc1` [NEFAZODONE], the Hepatotoxicity entry is “HH: Evidence of human hepatotoxicity”.

As for `CN(Cc1cnc2nc(N)nc(N)c2n1)c1ccc(C(=O)N[C@@H](CCC(=O)O)C(=O)O)cc1` [METHOTREXATE], the Hepatotoxicity result is on record as “HH: Evidence of human hepatotoxicity”.

Consider `NC(=O)OCC(COC(N)=O)c1ccccc1` [FELBAMATE], for which the Hepatotoxicity result is “HH: Evidence of human hepatotoxicity”.

As for `Cl.Clc1cccc(Cl)c1NC1=NCCN1` [CLONIDINE HYDROCHLORIDE], the Hepatotoxicity result is “HH: Evidence of human hepatotoxicity”.

As to `CC(=O)N(O)CCCCCNC(=O)CCC(=O)N(O)CCCCCNC(=O)CCC(=O)N(O)CCCCCN.CS(=O)(=O)O` [DEFEROXAMINE MESYLATE], the Hepatotoxicity entry was “HH: Evidence of human hepatotoxicity”.

In the case of `COCCCC/C(=N\OCCN)c1ccc(C(F)(F)F)cc1` [FLUVOXAMINE], the Hepatotoxicity result is “HH: Evidence of human hepatotoxicity”.

For `COc1cc2c(c3oc(=O)c4c(c13)CCC4=O)[C@@H]1C=CO[C@@H]1O2` [AFLATOXIN], the Hepatotoxicity result is listed as “HH: Evidence of human hepatotoxicity”.

Regarding CISPLATIN, the Hepatotoxicity entry is “HH: Evidence of human hepatotoxicity”.

Take `Cc1ccc(Cl)c(Nc2ccccc2C(=O)[O-])c1Cl.O.[Na+]` [MECLOFENAMATE SODIUM]: the Hepatotoxicity result is given as “HH: Evidence of human hepatotoxicity”.

On to `O=C1NC(=O)C(c2ccccc2)(c2ccccc2)N1` [PHENYTOIN], for which the Hepatotoxicity entry was “HH: Evidence of human hepatotoxicity”.

Consider `CC1(C)S[C@@H]2[C@H](NC(=O)[C@H](NC(=O)N3CCNC3=O)c3ccccc3)C(=O)N2[C@H]1C(=O)[O-].[Na+]` [AZLOCILLIN SODIUM], for which the Hepatotoxicity result was “NE: No evidence of hepatotoxicity in any species”.

Regarding `Cl.Cl.OCCN1CCN(CC/C=C2/c3ccccc3Sc3ccc(C(F)(F)F)cc32)CC1`, the Hepatotoxicity entry is reported as “NE: No evidence of hepatotoxicity in any species”.

For `CC(C)(C)NCC(O)c1cc(O)cc(O)c1.O=S(=O)(O)O` (centres undefined), the Hepatotoxicity entry is “HH: Evidence of human hepatotoxicity”.

For `Clc1ccccc1C(c1ccccc1)(c1ccccc1)n1ccnc1` [CLOTRIMAZOLE], the Hepatotoxicity entry is “WE: Weak evidence (<10 case reports) of human hepatotoxicity”.

`CCOc1ccc(NC(C)=O)cc1` [PHENACETIN]: the Hepatotoxicity entry is listed as “HH: Evidence of human hepatotoxicity”.

`NC(=O)N1c2ccccc2C=Cc2ccccc21` [CARBAMAZEPINE]: the Hepatotoxicity entry was “HH: Evidence of human hepatotoxicity”.

`Br.COc1ccc2c(c1)[C@]13CCCC[C@@H]1[C@H](C2)N(C)CC3.O` [DEXTROMETHORPHAN HYDROBROMIDE]: the Hepatotoxicity entry is given as “NE: No evidence of hepatotoxicity in any species”.

`O=C(c1ccc(OCCN2CCCCC2)cc1)c1c(-c2ccc(O)cc2)sc2cc(O)ccc12` [RALOXIFENE]: the Hepatotoxicity entry is “WE: Weak evidence (<10 case reports) of human hepatotoxicity”.

Turning to `C[C@]12CC[C@@H]3c4ccc(O)cc4CC[C@H]3[C@@H]1CC[C@@H]2O[C@@H]1O[C@H](C(=O)O)[C@@H](O)[C@H](O)[C@H]1O` [ESTRADIOL 17B GLUCURONIDE], the Hepatotoxicity result is recorded as “HH: Evidence of human hepatotoxicity”.

On to `CC(C)(C)NC(=O)[C@@H]1C[C@@H]2CCCC[C@@H]2CN1C[C@@H](O)[C@H](Cc1ccccc1)NC(=O)[C@H](CC(N)=O)NC(=O)c1ccc2ccccc2n1.CS(=O)(=O)O` [SAQUINAVIR MESYLATE], for which the Hepatotoxicity result was “HH: Evidence of human hepatotoxicity”.

Take `NC1=NC(=O)C(c2ccccc2)O1` (centres undefined) [PEMOLINE]: the Hepatotoxicity entry was “HH: Evidence of human hepatotoxicity”.

Take `Nc1nc(=O)c2c([nH]1)NCC(CNc1ccc(C(=O)N[C@@H](CCC(=O)[O-])C(=O)[O-])cc1)N2C=O.[Ca+2]` (some centres undefined) [LEUCOVORIN CALCIUM]: the Hepatotoxicity result is “NE: No evidence of hepatotoxicity in any species”.

With `CCCCNc1ccc(C(=O)OCCN(C)C)cc1.Cl` [TETRACAINE HYDROCHLORIDE], the Hepatotoxicity entry is recorded as “NE: No evidence of hepatotoxicity in any species”.

In the case of `COc1ccc(OC)c(C(O)C(C)N)c1.Cl` (centres undefined) [METHOXAMINE HYDROCHLORIDE], the Hepatotoxicity entry is on record as “NE: No evidence of hepatotoxicity in any species”.

Turning to `CC(COc1ccccc1)NC(C)C(O)c1ccc(O)cc1.Cl` (centres undefined) [ISOXSUPRINE HYDROCHLORIDE], the Hepatotoxicity result is reported as “NE: No evidence of hepatotoxicity in any species”.

Regarding `COc1cc(C(=O)NS(=O)(=O)c2ccccc2C)ccc1Cc1cn(C)c2ccc(NC(=O)OC3CCCC3)cc12` [ZAFIRLUKAST], the Hepatotoxicity entry is reported as “HH: Evidence of human hepatotoxicity”.

With `ClC(Cl)(Cl)Cl` [CARBON TETRACHLORIDE], the Hepatotoxicity entry is listed as “HH: Evidence of human hepatotoxicity”.

Consider `CCOc1nc2cccc(C(=O)O)c2n1Cc1ccc(-c2ccccc2-c2nnn[nH]2)cc1`, for which the Hepatotoxicity entry is recorded as “WE: Weak evidence (<10 case reports) of human hepatotoxicity”.

With `O=C(O)COc1ccc(C(=O)c2cccs2)c(Cl)c1Cl`, the Hepatotoxicity result is on record as “HH: Evidence of human hepatotoxicity”.

As for `CC(NC(C)(C)C)C(=O)c1cccc(Cl)c1.Cl` (centres undefined) [BUPROPION HYDROCHLORIDE], the Hepatotoxicity result is listed as “WE: Weak evidence (<10 case reports) of human hepatotoxicity”.

Take `CN(C)CCN(Cc1ccccc1)c1ccccn1.Cl` [TRIPELENNAMINE HYDROCHLORIDE]: the Hepatotoxicity entry was “HH: Evidence of human hepatotoxicity”.

Consider `CNCCCC12CCC(c3ccccc31)c1ccccc12` [MAPROTILINE], for which the Hepatotoxicity entry is listed as “WE: Weak evidence (<10 case reports) of human hepatotoxicity”.

Take `CC[C@]1(O)C[C@H]2CN(CCc3c([nH]c4ccccc34)[C@@](C(=O)OC)(c3cc4c(cc3OC)N(C=O)[C@H]3[C@@](O)(C(=O)OC)[C@H](OC(C)=O)[C@]5(CC)C=CCN6CC[C@]43[C@@H]65)C2)C1.O=S(=O)(O)O` [VINCRISTINE SULFATE]: the Hepatotoxicity result is “HH: Evidence of human hepatotoxicity”.

Regarding `C=C1CC[C@@]2(O)[C@H]3Cc4ccc(O)c5c4[C@@]2(CCN3CC2CC2)[C@H]1O5`, the Hepatotoxicity result is “NE: No evidence of hepatotoxicity in any species”.

For the compound `CC(=O)O.O=C(NCC1CCCCN1)c1cc(OCC(F)(F)F)ccc1OCC(F)(F)F` (centres undefined) [FLECAINIDE ACETATE], the Hepatotoxicity result is listed as “HH: Evidence of human hepatotoxicity”.

With `CCc1nc(N)nc(N)c1-c1ccc(Cl)cc1` [PYRIMETHAMINE], the Hepatotoxicity entry is given as “HH: Evidence of human hepatotoxicity”.

`CC(C)NCC(O)COc1cccc2ccccc12` (centres undefined) [PROPRANOLOL]: the Hepatotoxicity entry is given as “NE: No evidence of hepatotoxicity in any species”.

For the compound `Nc1ccn([C@@H]2CS[C@H](CO)O2)c(=O)n1` [LAMIVUDINE], the Hepatotoxicity entry is “WE: Weak evidence (<10 case reports) of human hepatotoxicity”.

Regarding `CCOC(=O)c1ncn2c1CN(C)C(=O)c1cc(F)ccc1-2` [FLUMAZENIL], the Hepatotoxicity result is reported as “NE: No evidence of hepatotoxicity in any species”.

Take `CC1(C)S[C@@H]2[C@H](NC(=O)[C@H](N)c3ccc(O)cc3)C(=O)N2[C@H]1C(=O)O` [AMOXICILLIN]: the Hepatotoxicity result is reported as “WE: Weak evidence (<10 case reports) of human hepatotoxicity”.

In the case of `CC(C)NNC(=O)c1ccncc1` [IPRONIAZID], the Hepatotoxicity result was “HH: Evidence of human hepatotoxicity”.

With `CN(C)[C@@H]1C(O)=C(C(N)=O)C(=O)[C@@]2(O)C(O)=C3C(=O)c4c(O)cccc4[C@@](C)(O)[C@H]3C[C@@H]12` [TETRACYCLINE], the Hepatotoxicity result was “HH: Evidence of human hepatotoxicity”.

With `CCN(CC)Cc1cc(Nc2ccnc3cc(Cl)ccc23)ccc1O.Cl.Cl.Cl`, the Hepatotoxicity entry is reported as “HH: Evidence of human hepatotoxicity”.

Consider `C=CCOC=O` [ALLYL FORMATE], for which the Hepatotoxicity result is “HH: Evidence of human hepatotoxicity”.
